# Assay results taken from the supplement of paper PMC9663587.
# Columns and labels:
# Test in all cases: increase in dead-cell fraction, 72 h; higher = more death;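 note: breast cancer cell lines in 384-well plates, stained with Hoechst plus LIVE/DEAD far red dye and imaged, cells above an LDR intensity threshold counted dead, Hoechst-negative corpses included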
# Olaparib/AZD2281 = compound: O=C(c1cc(Cc2n[nH]c(=O)c3ccccc23)ccc1F)N1CCN(C(=O)C2CC2)CC1 [Olaparib/AZD2281]
# Buparlisib/NVP-BKM120 = compound: Nc1cc(C(F)(F)F)c(-c2cc(N3CCOCC3)nc(N3CCOCC3)n2)cn1 [Buparlisib/NVP-BKM120]
# [1] = compound: COc1cccc(OCCCN)c1-c1cc(Nc2cnc(C#N)cn2)n[nH]1
# [2] = compound: CNc1nc(-c2ccc3c(N)n[nH]c3c2)cc(N2C[C@@H](C(=O)NC3CCCCC3)CC[C@H]2C)n1
# TGX221 = compound: CC1=CN2C(=O)C=C(N=C2C(=C1)C(C)NC3=CC=CC=C3)N4CCOCC4 [TGX221]
# Pictilisib/GDC0941 = compound: CS(=O)(=O)N1CCN(Cc2cc3nc(-c4cccc5[nH]ncc45)nc(N4CCOCC4)c3s2)CC1 [Pictilisib/GDC0941]
# Dasatinib = compound: Cc1nc(Nc2ncc(C(=O)Nc3c(C)cccc3Cl)s2)cc(N2CCN(CCO)CC2)n1 [Dasatinib]
# AZD1775 = compound: C=CCn1c(=O)c2cnc(Nc3ccc(N4CCN(C)CC4)cc3)nc2n1-c1cccc(C(C)(C)O)n1 [AZD1775]
# AZD2014 = compound: CNC(=O)c1cccc(-c2ccc3c(N4CCOC[C@@H]4C)nc(N4CCOC[C@@H]4C)nc3n2)c1 [AZD2014]
# FMF-03-146-1 = compound: CN1CCN(CC1)C2=CC(=C(C=C2)NC3=NC=C4C(=N3)N(C5=CC=CC=C5C(=O)N4CC(F)(F)F)C)OC [FMF-03-146-1]
# Torin2 = compound: C1=CC(=CC(=C1)N2C(=O)C=CC3=CN=C4C=CC(=CC4=C32)C5=CN=C(C=C5)N)C(F)(F)F [Torin2]
# [3] = compound: CCC1=CN=CN=C1N2CCN(CC2)CC3=NC4=C(N3)C=C(C=C4)C(F)(F)F
cell line,measurement,setting,value
AU565,increase in dead-cell fraction,Olaparib/AZD2281; 0.001 µM,-0.0007
same,increase in dead-cell fraction,Olaparib/AZD2281; 0.003162 µM,-0.0016
same,increase in dead-cell fraction,Olaparib/AZD2281; 0.01 µM,0.0011
same,increase in dead-cell fraction,Olaparib/AZD2281; 0.03162 µM,-0.0026
same,increase in dead-cell fraction,Olaparib/AZD2281; 0.1 µM,0.0033
same,increase in dead-cell fraction,Olaparib/AZD2281; 0.3162 µM,-0.0012
same,increase in dead-cell fraction,Olaparib/AZD2281; 1 µM,-0.006
same,increase in dead-cell fraction,Olaparib/AZD2281; 3.162 µM,-0.0026
same,increase in dead-cell fraction,Olaparib/AZD2281; 10 µM,0.0043
same,increase in dead-cell fraction,Buparlisib/NVP-BKM120; 0.001 µM,-0.0006
same,increase in dead-cell fraction,Buparlisib/NVP-BKM120; 0.003162 µM,0.0058
same,increase in dead-cell fraction,Buparlisib/NVP-BKM120; 0.01 µM,0.0024
same,increase in dead-cell fraction,Buparlisib/NVP-BKM120; 0.03162 µM,0.0055
same,increase in dead-cell fraction,Buparlisib/NVP-BKM120; 0.1 µM,0.0187
same,increase in dead-cell fraction,Buparlisib/NVP-BKM120; 0.3162 µM,0.043
same,increase in dead-cell fraction,Buparlisib/NVP-BKM120; 1 µM,0.189
same,increase in dead-cell fraction,Buparlisib/NVP-BKM120; 3.162 µM,0.273
same,increase in dead-cell fraction,Buparlisib/NVP-BKM120; 10 µM,0.227
same,increase in dead-cell fraction,[1]; 10 pM,-0.002
same,increase in dead-cell fraction,[1]; 31.6 pM,-0.0013
same,increase in dead-cell fraction,[1]; 0.0001 µM,-0.0035
same,increase in dead-cell fraction,[1]; 0.0003162 µM,-0.0022
same,increase in dead-cell fraction,[1]; 0.001 µM,0.139
same,increase in dead-cell fraction,[1]; 0.003162 µM,0.168
same,increase in dead-cell fraction,[1]; 0.01 µM,0.194
same,increase in dead-cell fraction,[1]; 0.03162 µM,0.187
same,increase in dead-cell fraction,[1]; 0.1 µM,0.211
same,increase in dead-cell fraction,[2]; 0.001 µM,-0.0175
same,increase in dead-cell fraction,[2]; 0.003162 µM,0.001
same,increase in dead-cell fraction,[2]; 0.01 µM,0.0046
same,increase in dead-cell fraction,[2]; 0.03162 µM,0.0008
same,increase in dead-cell fraction,[2]; 0.1 µM,0.0065
same,increase in dead-cell fraction,[2]; 0.3162 µM,0.0014
same,increase in dead-cell fraction,[2]; 1 µM,0.0253
same,increase in dead-cell fraction,[2]; 3.162 µM,0.0252
same,increase in dead-cell fraction,[2]; 10 µM,0.0432
same,increase in dead-cell fraction,TGX221; 0.001 µM,0
same,increase in dead-cell fraction,TGX221; 0.003162 µM,-0.0043
same,increase in dead-cell fraction,TGX221; 0.01 µM,-0.0042
same,increase in dead-cell fraction,TGX221; 0.03162 µM,-0.0019
same,increase in dead-cell fraction,TGX221; 0.1 µM,0.0014
same,increase in dead-cell fraction,TGX221; 0.3162 µM,0.003
same,increase in dead-cell fraction,TGX221; 1 µM,0.0069
same,increase in dead-cell fraction,TGX221; 3.162 µM,0.0045
same,increase in dead-cell fraction,TGX221; 10 µM,0.0099
same,increase in dead-cell fraction,Pictilisib/GDC0941; 0.001 µM,0.0052
same,increase in dead-cell fraction,Pictilisib/GDC0941; 0.003162 µM,0.007
same,increase in dead-cell fraction,Pictilisib/GDC0941; 0.01 µM,0.0001
same,increase in dead-cell fraction,Pictilisib/GDC0941; 0.03162 µM,0.0063
same,increase in dead-cell fraction,Pictilisib/GDC0941; 0.1 µM,0.0196
same,increase in dead-cell fraction,Pictilisib/GDC0941; 0.3162 µM,0.0368
same,increase in dead-cell fraction,Pictilisib/GDC0941; 1 µM,0.0866
same,increase in dead-cell fraction,Pictilisib/GDC0941; 3.162 µM,0.126
same,increase in dead-cell fraction,Pictilisib/GDC0941; 10 µM,0.19
same,increase in dead-cell fraction,Dasatinib; 0.001 µM,0.0065
same,increase in dead-cell fraction,Dasatinib; 0.003162 µM,0.0017
same,increase in dead-cell fraction,Dasatinib; 0.01 µM,0.0035
same,increase in dead-cell fraction,Dasatinib; 0.03162 µM,-0.0007
same,increase in dead-cell fraction,Dasatinib; 0.1 µM,-0.003
same,increase in dead-cell fraction,Dasatinib; 0.3162 µM,0.0019
same,increase in dead-cell fraction,Dasatinib; 1 µM,-0.0024
same,increase in dead-cell fraction,Dasatinib; 3.162 µM,0.0091
same,increase in dead-cell fraction,Dasatinib; 10 µM,0.0365
same,increase in dead-cell fraction,AZD1775; 0.001 µM,0.0224
same,increase in dead-cell fraction,AZD1775; 0.003162 µM,0.0098
same,increase in dead-cell fraction,AZD1775; 0.01 µM,0.0075
same,increase in dead-cell fraction,AZD1775; 0.03162 µM,0.029
same,increase in dead-cell fraction,AZD1775; 0.1 µM,0.0256
same,increase in dead-cell fraction,AZD1775; 0.3162 µM,0.0481
same,increase in dead-cell fraction,AZD1775; 1 µM,0.119
same,increase in dead-cell fraction,AZD1775; 3.162 µM,0.184
same,increase in dead-cell fraction,AZD1775; 10 µM,0.472
same,increase in dead-cell fraction,AZD2014; 0.001 µM,0.0342
same,increase in dead-cell fraction,AZD2014; 0.003162 µM,0.0014
same,increase in dead-cell fraction,AZD2014; 0.01 µM,0.032
same,increase in dead-cell fraction,AZD2014; 0.03162 µM,0.0412
same,increase in dead-cell fraction,AZD2014; 0.1 µM,0.0311
same,increase in dead-cell fraction,AZD2014; 0.3162 µM,0.107
same,increase in dead-cell fraction,AZD2014; 1 µM,0.0854
same,increase in dead-cell fraction,AZD2014; 3.162 µM,0.0584
same,increase in dead-cell fraction,AZD2014; 10 µM,0.126
same,increase in dead-cell fraction,FMF-03-146-1; 0.001 µM,-0.0004
same,increase in dead-cell fraction,FMF-03-146-1; 0.003162 µM,-0.0059
same,increase in dead-cell fraction,FMF-03-146-1; 0.01 µM,-0.0077
same,increase in dead-cell fraction,FMF-03-146-1; 0.03162 µM,-0.0019
same,increase in dead-cell fraction,FMF-03-146-1; 0.1 µM,-0.007
same,increase in dead-cell fraction,FMF-03-146-1; 0.3162 µM,0.0094
same,increase in dead-cell fraction,FMF-03-146-1; 1 µM,0.0124
same,increase in dead-cell fraction,FMF-03-146-1; 3.162 µM,-0.0094
same,increase in dead-cell fraction,FMF-03-146-1; 10 µM,0.0136
same,increase in dead-cell fraction,Torin2; 0.0001 µM,0.0019
same,increase in dead-cell fraction,Torin2; 0.0003162 µM,0.0033
same,increase in dead-cell fraction,Torin2; 0.001 µM,0.0025
same,increase in dead-cell fraction,Torin2; 0.003162 µM,0.0127
same,increase in dead-cell fraction,Torin2; 0.01 µM,0.032
same,increase in dead-cell fraction,Torin2; 0.03162 µM,0.0466
same,increase in dead-cell fraction,Torin2; 0.1 µM,0.0874
same,increase in dead-cell fraction,Torin2; 0.3162 µM,0.0982
same,increase in dead-cell fraction,Torin2; 1 µM,0.121
same,increase in dead-cell fraction,[3]; 0.001 µM,0.0018
same,increase in dead-cell fraction,[3]; 0.003162 µM,-0.0015
same,increase in dead-cell fraction,[3]; 0.01 µM,-0.0042
same,increase in dead-cell fraction,[3]; 0.03162 µM,-0.0013
same,increase in dead-cell fraction,[3]; 0.1 µM,0.0031
same,increase in dead-cell fraction,[3]; 0.3162 µM,-0.0005
same,increase in dead-cell fraction,[3]; 1 µM,0.001
same,increase in dead-cell fraction,[3]; 3.162 µM,0.0056
same,increase in dead-cell fraction,[3]; 10 µM,0.0157
